The target of one series is T1, CYP2D6 (Homo sapiens, UniProt P10635).
T1 construct: purchased Thermo Fisher Scientific; host or cells: insect microsomal fractions
The series is described as follows: Vivid CYP screening kit, recombinant CYP2D6. Type of series: biochemical. The note with it: recombinant enzyme. As to the method: (§1) CYP inhibitory assay was performed as described previously. Experiments were performed with commercial Vivid CYP screening kits containing insect microsomal fractions enriched with a specific human CYP isoform, human CYP reductase, and in some cases, human cytochrome b5. The potential inhibitory activity of ensartinib toward CYP1A2, CYP2B6, CYP2C8, CYP2C9, CYP2C19, CYP2D6, CYP3A4, and CYP3A5 (i.e., all CYP isoforms that drug regulatory authorities recommend for testing of inhibition by new molecular entities) was then examined. Experiments were performed using a kinetic mode in black 96-well plates according to the manufacturer´s instructions. Briefly, 5-point serial dilutions of ensartinib or the model inhibitor recommended by the manufacturer in buffer were transferred into the wells, then a master mix consisting of a CYP isoenzyme with an NADPH regeneration system in buffer was added. After a 10 min pre-incubation, the reaction was initiated by adding a mixture of NADP^+ and the appropriate Vivid substrate, after which fluorescence was measured at 1 min intervals for 60 min using an Infinite M200 Pro microplate reader (Tecan, Männedorf, Switzerland). The enzyme concentration and incubation interval used for data evaluation (15 min) placed the systems within the linear regions of the appropriate reaction velocity curves. […]

For a further series, the system named is MDCKII-par cells. The series is described as follows: substrate accumulation in control MDCKII-par cells. In kind it is cell-based, canine. The note with it: hoechst 33342, calcein AM, daunorubicin, mitoxantrone. As to the method: Cellular accumulation assay with hoechst 33342 and calcein AM was performed as described previously. Briefly, MDCKII-par, MDCKII-ABCB1, MDCKII-ABCG2, and MDCKII-ABCC1 cells were seeded at densities of 5.0 × 10^4, 5.0 × 10^4, 5.5 × 10^4, and 6.0 × 10^4 cells/well, respectively, on a transparent 96-well plate and grown to full confluence for 24 h under standard conditions. The cells were then washed twice with 1 × PBS, after which was added either a dilution of ensartinib in Opti-MEM (1, 5, 10, 25, or 50 µM) or a specific inhibitor to act as a positive control (1 µM LY335979, 1 µM Ko143, or 25 µM MK-571 for ABCB1, ABCG2, or ABCC1, respectively). […] The intracellular levels of the substrates were then determined at 1 min intervals for 30 min using a microplate reader (Infinite M200 Pro, Tecan, Männedorf, Switzerland). Fluorescence was monitored in bottom mode using excitation/emission wavelengths of 350/465 and 485/535 nm for hoechst 33342 and calcein AM, respectively.
The flow-cytometric inhibitory assay with daunorubicin and mitoxantrone was performed with minor modifications as described previously. […] Samples were then transferred into test-tubes and kept on ice until their fluorescence could be measured using a flow cytometer (BD FACSCanto II, Allschwil, Switzerland). […]

For another series, the target named is T2, CYP3A5 (Homo sapiens, UniProt P20815).
T2 construct: purchased Thermo Fisher Scientific; host or cells: insect microsomal fractions
T2 sequence (P20815 whole entry): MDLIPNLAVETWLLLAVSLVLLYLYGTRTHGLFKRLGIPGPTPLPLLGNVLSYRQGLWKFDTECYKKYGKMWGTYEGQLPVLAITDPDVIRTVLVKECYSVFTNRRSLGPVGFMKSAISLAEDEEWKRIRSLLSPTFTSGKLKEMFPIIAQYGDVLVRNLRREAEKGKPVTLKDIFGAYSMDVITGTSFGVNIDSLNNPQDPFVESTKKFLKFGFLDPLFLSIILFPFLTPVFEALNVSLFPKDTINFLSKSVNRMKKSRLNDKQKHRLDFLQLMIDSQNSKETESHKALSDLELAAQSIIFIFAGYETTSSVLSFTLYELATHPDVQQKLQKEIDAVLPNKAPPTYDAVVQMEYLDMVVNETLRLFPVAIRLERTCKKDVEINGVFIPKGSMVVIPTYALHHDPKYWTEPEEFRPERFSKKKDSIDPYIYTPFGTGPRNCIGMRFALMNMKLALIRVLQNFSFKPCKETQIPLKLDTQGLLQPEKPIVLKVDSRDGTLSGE
The series is described as follows: Vivid CYP screening kit, recombinant CYP3A5. In kind it is biochemical. Conditions: recombinant enzyme, 15 min incubation, absolute IC50; read-out: CYP3A5 inhibition IC50. As for the experimental part:
as §1

The nature of series [1]: MTT proliferation / drug combination assay, MDCKII-ABCB1. Conditions: dog, MDCKII-ABCB1 cells. As for the experimental part:
MTT proliferation assay was performed as described previously. Cells were seeded on a 96-well culture plate at densities (in units of cells/well) of 1.3 × 10^4 for MDCKII-par, MDCKII-ABCB1, MDCKII-ABCG2, and MDCKII-ABCC1; 1.2 × 10^4 for A431-par, A431-ABCB1, A431-ABCG2 and A431-ABCC1; 1.2 × 10^4 for NCI-H1299; 2.0 × 10^4 for Caco-2; 5.0 × 10^4 for LS174T; and 6.0 × 10^4 for HepG2-CYP3A4 and HepG2-EV. After seeding, the cells were cultured for 24 h, then the media was removed and the cells were treated with serial dilutions of a drug or drug combination for 48 h. Vehicles containing media and 40% DMSO in media served as 100% and 0% viability controls, respectively. Upon completion of the 48 h period, the cells were washed once with 1× PBS, the media was replaced with an MTT solution in Opti-MEM (1 mg/mL), and the cells were incubated under standard conditions for 60 min. MTT solution was carefully removed and the resulting formazan crystals were immediately solubilized in DMSO. The cells were then shaken gently for 10 min, after which absorbance of their lysate was measured at 570 nm and 690 nm using a microplate reader (Infinite M200, Tecan, Salzburg, Austria); background values obtained at 690 nm were subtracted from the measurements obtained at 570 nm. This method was used to assess the effect of ABC transporters on sensitivity to ensartinib, in drug combination assays, and to identify drug concentrations appropriate for use in induction studies.
Experiments focusing on the modulation of ABC transporter-mediated resistance were performed as described previously. The parent MDCKII and HL60 cells and their ABCB1-, ABCG2-, and ABCC1-overexpressing counterparts were seeded at the densities specified above onto 96-well culture plates and cultured for 24 h. The medium was subsequently replaced with serial dilutions of ensartinib alone or with various concentrations of a model MDR-susceptible cytostatic agent (daunorubicin or mitoxantrone) with or without 10 µM ensartinib. After 48 h incubation, the cells’ viability was determined as described above. In addition to performing IC50-shift analyses, the viability measurements were converted to FA (fraction of cells affected) values and the effects of drug combinations were quantified using the Chou-Talalay combination index (CI) method as implemented in CompuSyn 3.0.1 (ComboSyn Inc., Paramus, NJ, USA). The effects of concomitantly administered drugs were classified as synergistic (CI < 0.9), additive (0.9 < CI < 1.1), or antagonistic (CI > 1.1) based on the computed CI values.

The structures appear in SMILES notation.

T1 sequence (P10635 whole entry): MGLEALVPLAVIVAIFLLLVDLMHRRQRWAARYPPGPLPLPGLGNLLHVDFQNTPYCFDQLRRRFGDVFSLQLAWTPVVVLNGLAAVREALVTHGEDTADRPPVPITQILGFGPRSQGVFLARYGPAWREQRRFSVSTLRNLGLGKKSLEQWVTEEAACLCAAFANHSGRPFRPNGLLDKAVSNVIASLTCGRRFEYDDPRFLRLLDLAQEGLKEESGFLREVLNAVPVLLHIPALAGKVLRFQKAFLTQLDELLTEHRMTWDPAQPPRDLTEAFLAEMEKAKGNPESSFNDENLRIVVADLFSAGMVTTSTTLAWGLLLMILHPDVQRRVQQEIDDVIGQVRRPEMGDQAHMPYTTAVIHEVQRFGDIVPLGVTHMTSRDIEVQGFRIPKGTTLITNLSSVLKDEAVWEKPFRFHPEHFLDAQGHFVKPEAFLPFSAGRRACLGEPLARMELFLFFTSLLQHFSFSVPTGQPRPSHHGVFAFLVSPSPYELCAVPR

As to `C[C@@H]1CN(C(=O)c2ccc(NC(=O)c3cc(O[C@H](C)c4c(Cl)ccc(F)c4Cl)c(N)nn3)cc2)C[C@H](C)N1` [ensartinib, Ensartinib], the “inhibitory effect on CYP2D6 (in words)” value at CYP2D6 was “no appreciable inhibitory effect”. The IC50 is over 50 µM at CYP2D6 (15 min incubation, absolute IC50, read-out: CYP2D6 inhibition IC50) and 19.1 µM at CYP3A5. In addition, the “effect on the accumulation of any substrate in control cells” value in the series with MDCKII-par cells is recorded as “no significant effect”. Further, in series [1], the IC50 at 48 h is 23.9 µM.

In general, IC50 refers to the concentration that gives 50% inhibition.

Source of the values: paper PMC7226045, “Ensartinib (X-396) Effectively Modulates Pharmacokinetic Resistance Mediated by ABCB1 and ABCG2 Drug Efflux Transporters and CYP3A4 Biotransformation Enzyme” (Cancers, 2020).
